Data set [1] concerns A549. Put plainly: Induction of cell cycle arrest in human A549 cells assessed as decrease in CDK4 level at 2 to 4 uM by Western blot analysis. Format: functional, cell-based. The following applies: dose 2-4 µM.
Data set [2] concerns A549. Put plainly: Inhibition of PI3K phosphorylation in human A549 cells at 2 to 4 uM by Western blot analysis. The following applies: dose 2-4 µM. Format: cell-based.
Data set [3] concerns A549. Kind of data set: Induction of intracellular ROS generation in human A549 cells at 2 to 4 uM by DCFH-DA staining based flow cytometry analysis. Format: functional, cell-based. Conditions: dose 2-4 µM, time 6.0 hrs, TDE = time-dependent effect.
The test system of the next data set is Lewis lung carcinoma. Put plainly: Antitumor activity against mouse Lewis lung carcinoma cell line implanted in C57BL/6J mouse assessed as reduction in tumor cell proliferation by measuring reduction in Ki67 expression at 0.5 to 1 mg/kg, ip administered every day for 19 days. The data set is classed as functional, organism-based. Conditions: dose 0.5-1 mg/kg, time 19.0 day.

Data set [4] has as its system A549. Put plainly: Induction of apoptosis in human A549 cells assessed as late apoptotic cells at 4 uM incubated for 48 hrs by Annexin V-FITC and PI staining based flow cytometric analysis (reference value: 0.73%). Format: functional.
A further data set relates to SK-HEP1. Kind of data set: Antiproliferative activity against human SK-HEP1 cells assessed as inhibition of cell growth incubated for 48 hrs by MTT assay. Conditions: SK-HEP1, 48 h. The data set is classed as functional, cell-based.
Data set [5] is described as follows: Antitumor activity against mouse Lewis lung carcinoma cell line implanted in C57BL/6J mouse assessed as tumor growth inhibition at 0.5 mg/kg, ip administered every day for 19 days. Conditions: 456 h, time 19 day, read-out: TGI. Format: functional.
Data set [6] deals with A549. Kind of data set: Induction of apoptosis in human A549 cells assessed as late apoptotic cells at 2 uM incubated for 48 hrs by Annexin V-FITC and PI staining based flow cytometric analysis (reference value: 0.73%). Format: functional.
Data set [7] can be described thus: Toxicity in C57BL/6J mouse implanted with mouse Lewis lung carcinoma cell line assessed as heart damage at 0.5 to 1 mg/kg, ip administered every day for 19 days. The data set is classed as organism-based. Conditions: in vivo, 456 h, dose 0.5-1 mg/kg, time 19 day.
Data set [8] relates to A549. Kind of data set: Induction of intracellular ROS generation in human A549 cells at 2 to 4 uM incubated for 6 hrs by DCFH-DA staining based flow cytometry analysis. Format: functional, cell-based. The following applies: dose 2-4 µM.
For data set [9], the system named is A549. Kind of data set: Antiproliferative activity against human A549 cells assessed as inhibition of cell growth incubated for 48 hrs by MTT assay. Format: functional, cell-based. Conditions: A549, 48 h.
In data set [10] the test system is A549. Put plainly: Inhibition of AKT phosphorylation in human A549 cells at 2 to 4 uM by Western blot analysis. Format: cell-based. The following applies: dose 2-4 µM.

pIC50: −log10 of the molar value. Activity calls are given as the source filed them. The rule behind the calls is not given here.

In the case of `CC1=C(OC(=O)/C=C/c2ccccc2)C(=O)C=C2C1=CC=C1[C@@]2(C)CC[C@@]2(C)[C@@H]3C[C@](C)(C(=O)NCc4nc(C)c(C)nc4C)CC[C@]3(C)CC[C@]12C`, the result in the data set with A549 [1], in the data set with Lewis lung carcinoma and in the data set with A549 [8] was Active. Also, the inhibition entry in the data set with A549 [2] and in the data set with A549 [10] was “Active” in each case. For the same molecule, the Activity result with A549 [3] was “Tde”; in the data set on A549 [4] it was 33.4%; in the data set with A549 [6] it was 4.91%; in data set [7], “Non-Toxic”. Further, the pIC50 in the data set on SK-HEP1 was 5.62; with A549 [9] it was 5.72. In data set [5], the inhibition in vivo at 0.5 mg/kg is 69.9%.
